What all share (type): organism-based
Common to all, as to design: route oral
Common to all, as to conditions: in vivo, 672 h

Series [1] relates to Mus musculus. The series is described as follows: Toxicity in diet-induced obese C57Bl/6 mouse assessed as change in AST level at 150 mg/kg/day, po for 4 weeks administered with high-fat diet (reference value: 128.00 +/- 20.59 U/L).
Series [2] concerns Mus musculus. The series is described as follows: Toxicity in diet-induced obese C57Bl/6 mouse assessed as change in ALT level at 150 mg/kg/day, po for 4 weeks administered with high-fat diet (reference value: 29.6 +/- 8.29 U/L).
Series [3] concerns Mus musculus. The series is described as follows: Toxicity in diet-induced obese C57Bl/6 mouse assessed as change in AST level at 150 mg/kg/day, po for 4 weeks administered with high-fat diet (reference value: 125.00 +/- 35.00 U/L).
The subject of series [4] is Mus musculus. Nature of the series: Toxicity in diet-induced obese C57Bl/6 mouse assessed as change in food intake at 150 mg/kg/day, po for 4 weeks administered with high-fat diet.
The subject of series [5] is Mus musculus. Nature of the series: Toxicity in diet-induced obese C57Bl/6 mouse assessed as change in ALT level at 150 mg/kg/day, po for 4 weeks administered with high-fat diet (reference value: 33.00 +/- 18.23 U/L).

For `CN(C)C(=N)N=C(N)N` [METFORMIN], the Activity in the series with Mus musculus [1] is 172 U/L; in the series with Mus musculus [2], 46.29 U/L; in the series with Mus musculus [3], 110 U/L; with Mus musculus [4], “Non-toxic”; in the series on Mus musculus [5], 21.67 U/L.

The record behind these values is ChEMBL document CHEMBL3352801, “Synthesis and lipid-lowering evaluation of 3-methyl-1H-purine-2,6-dione derivatives as potent and orally available anti-obesity agents” (Eur J Med Chem, 2014).
